In patent publication US5814467A, “APO AI polypeptides, diagnostic methods and systems for quantifying APO AI, and therapeutic methods” (The Scripps Research Institute, priority 1994, dated 1998):
“Also recorded” adds a separate entry of the source.

What was measured:
[1] = tested on: monoclonal antibody AI-11; experiment: Solid-phase polypeptide direct binding ELISA; set-up: species or system mouse; settings: peptide coated at 50 μg/ml; 0.5 μg/ml HRP-conjugated AI-11
Description: Apo AI polypeptides AI84-111, AI85-111, AI90-111, AI93-111, AI94-111, AI-94-125, AI96-111, AI99-111, and AI99-114 were tested for immunoreactivity with monoclonal antibody AI-11 in a direct binding ELISA. In the assay, 50 μg/ml of each polypeptide was dissolved in PBS to form a peptide coating solution, of which 150 μl was admixed into the wells of a flexible polyvinyl chloride microtiter plate (Immulon). The wells were then maintained about 16 to 20 at 4° C. to permit the peptide to absorb onto (coat) the walls of the wells. After removing the peptide coating solution by shaking, the wells were washed once with 350 μl of rinsing buffer (PBS containing 1 g/l BSA, 0.5 ml/l Tween 20, and 2 μl/1 aprotinin). Excess protein binding sites were blocked by admixing 200 μl of blocking buffer (PBS containing 3% BSA) into each well, maintaining the wells for 1 hour at 37° C., removing the blocking buffer by shaking, and then washing the wells 3 times as previously described. The plate was then dried for 1 hour at 37° C. followed by addition of 100 μl of PBS containing 0.5 μg/ml horseradish peroxidase conjugated AI-11 antibody to form a solid-liquid phase immunoreaction admixture. The resulting solid-liquid phase immunoreaction admixture was maintained at 20° C. for 1 hour to permit formation of a solid-phase polypeptide-containing immunoreaction product. The wells were then washed 3 times with rinsing buffer to remove unbound antibody.
The amount of immunoreaction product present in the solid phase was then determined by admixing two hundred microliters of OPD substrate into each well to form a developing-reaction admixture. The admixture was maintained for 30 minutes at about 20° C. Subsequently, 50 μl of 4N H2 SO4 were admixed into each well to stop the developing-reaction, and the resulting solution was assayed for absorbance at 450 nanometers using a microtiter plate reader (Dynatech) to detect the amount of formed immunoreaction product.

MAB AI-4 = experiment: Competitive RIA, MAB AI-4 binding to Apo AI/HDL-coated wells; set-up: species or system mouse; settings: FIG. 3 and FIG. 4
Description: The immunoreactivity of MAB AI-4 for native Apo AI/HDL and various synthetic polypeptides was examined by a competitive RIA performed as follows:
(§1) One hundred μl of PBS (0.15M NaCl, 0.01M NaPO4, pH 7.2) containing 10 μg/ml Apo AI/HDL were admixed to the wells of microtiter plates. The plates were maintained for 1 hour at 20° C. on a rotating platform to allow the Apo AI/HDL to adhere to the wells and form solid supports. After aspirating excess liquid from the wells, 200 μl of block solution (3% BSA, 3% NGS in PBS) was admixed to each well, and the wells were maintained for 30 minutes at 20° C. on a rotating platform. Subsequently, the blocking solution was removed by aspiration, and the wells were washed 3 times with SPRIA buffer.
(§2) To each well was then admixed first with 50 μl of PBS containing 3% BSA and various concentrations of competitor antigen, i.e., Apo AI/HDL peptide, and, second, 50 μl of MAB AI-4 in the form of clarified ascites diluted 1:11.25×10^5 in PBS containing 3% BSA to form competitive immunoreaction admixtures. In control wells, either competing antigen or antibody was replaced by PBS containing 3% BSA.
(§3) The immunoreaction admixtures were maintained about 16 hours at 4° C. on a rotating platform to permit formation of solid-phase immunoreaction products. After washing the wells as previously described, 100 μl of ^125 I-labeled goat anti-mouse Ig (^125 I-goat anti-mouse Ig diluted to 2×10^5 trichloracetic acid precipitable disintegrations per minute per 100 μl in PBS containing 3% BSA) were admixed to each well. The labeling immunoreaction admixtures so formed were maintained for 4 hours at 4° C. on a rotating platform. Subsequently, the wells were washed with SPRIA buffer as previously described, and the amount of ^125 I-labeled solid-phase immunoreaction product formed was determined in a gamma counter.
The ability of MAB AI-4 to immunoreact with Apo AI/HDL was compared by using Apo AI/HDL and various synthetic peptides as competitors in the above-described RIA. B/Bo represents corrected CPMs which are plotted against increasing concentrations of competition in μg/ml. B/Bo values are determined in the following formula: [formula] where 0% CPM is a measure of non-specific background based on CPM obtained in RIAs where wells coated with Apo AI/HDL are reacted with the labeled secondary antibody in the absence of primary antibody and competitor, and where 100% CPM is a measure of the maximum non-competed binding of primary antibody to the substrate coated to the wells. The more efficiently a competitor binds to the primary antibody, the lower the B/Bo values.

LCAT = target: T1, LCAT (Homo sapiens, UniProt P04180); settings: cited from earlier work
T1 sequence (P04180 25-440): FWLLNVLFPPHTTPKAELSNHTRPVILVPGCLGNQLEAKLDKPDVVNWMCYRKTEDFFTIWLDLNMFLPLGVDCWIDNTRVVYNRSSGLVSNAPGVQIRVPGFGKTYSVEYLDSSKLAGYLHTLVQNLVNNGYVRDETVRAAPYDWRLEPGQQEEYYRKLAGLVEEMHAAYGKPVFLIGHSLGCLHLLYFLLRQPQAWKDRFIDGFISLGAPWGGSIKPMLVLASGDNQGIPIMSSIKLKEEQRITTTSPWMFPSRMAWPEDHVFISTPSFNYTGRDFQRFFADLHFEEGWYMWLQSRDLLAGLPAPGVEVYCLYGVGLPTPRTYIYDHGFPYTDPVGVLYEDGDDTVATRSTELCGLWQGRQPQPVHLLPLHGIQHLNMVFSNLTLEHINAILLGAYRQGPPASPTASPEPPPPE

MAB AI-11 = experiment: Competitive RIA, MAB AI-11 binding to Apo AI/HDL-coated wells; set-up: species or system mouse; settings: FIG. 5 and FIG. 6
Description: as §1, §2, §3
The immunoreactivity of MAB AI-11 for native Apo AI/HDL and various synthetic polypeptides was examined by a competitive RIA as described in Example 10A. […] Other peptides were evaluated for their ability to immunoreact with AI-1l MAE in competitive RIAs described herein.

[2] = tested on: monoclonal antibody AI-11; experiment: Competition ELISA, AI-11 binding to AI96-111-coated wells; set-up: species or system mouse; settings: FIG. 2, competitor from 1 mg/ml, serial 2-fold dilutions
Description: To determine the relative effectiveness of AI-11 binding to Apo AI synthetic polypeptides, a competition ELISA was performed with AI 96-111 as the test synthetic polypeptide in comparison to Apo AI-containing serum and purified Apo AI/HDL. Microtiter plates were coated with AI 96-111 as described hereinbefore. After the drying step of the assay described hereinbefore, 50 μl of a fluid sample (i.e., an Apo AI-containing fluid sample) or standard (i.e., an Apo AI polypeptide) to be assayed were admixed into the polypeptide AI96-111-coated well simultaneously with 50 μl of HRPO-conjugated AI-11 antibody to form an immunoreaction admixture. In the assay described herein, 3 competitors were tested for their ability to compete for binding of AI-11 to the AI 96-111 polypeptide coated over a range of dilutions. The polypeptide AI 96-111 was added in separate coated wells at a starting concentration of 1 mg/ml and diluted 2-fold serially 6 times down to a final concentration of 0.0156 mg/ml. Serum samples as described in Example 2 were added at a starting dilution of 1:10 and diluted 2-fold serially 6 times down to a final dilution of […]. Apo AI/HDL as described in Example 2 was added at a starting concentration of 1 mg/ml and diluted 2-fold 5 times down to a final concentration of 0.031 mg/ml. The plate was then incubated for 30 minutes at room temperature. […]

Substance | immunoreactivity with monoclonal antibody AI-11 in direct binding ELISA [1] | immunoreactivity with MAB AI-4, competition of binding to Apo AI/HDL (MAB AI-4) | immunoreactivity with MAB AI-11, competition of binding to Apo AI/HDL (MAB AI-11) | also measured
PYLDDXQKKWQEEMEL (PYLDDFQKKWQEEMEL) [AI99-114] | recognized by the antibody but with decreased specificity | partial reactivity; also recorded: immunoreacted |  | 
Apo AI fragment residues 148-185: Apo AI fragment residues 148-185 (Sparrow et al.) (MRDRARAHVDALRTHLAPYSDELRQRLAARLEALKENG; UniProt P02647 172-209, looked up, fragment) |  |  |  | involvement in activation of LCAT and lipid binding (LCAT; Sparrow et al. 1980): involved in both activation of LCAT and lipid binding
AI100-105: peptide derived from Apo AI, residues 100-105 (YLDDFQ) |  | did not react | do not immunoreact | 
KAKVQPYLDDXQKKWQEEMELYRQKVEPLRAE (KAKVQPYLDDFQKKWQEEMELYRQKVEPLRAE) [AI94-125] | specifically immunoreactive | better competitor; also recorded: competitively inhibit; also recorded: immunoreacts | inhibited; also recorded: immunoreact | 
AI101-111: peptide derived from Apo AI, residues 101-111 (LDDFQKKWQEE) |  | did not react |  | 
Apo AI/HDL: Apo AI when it is present on HDL particles, isolated from plasma [reference compound] |  | competitively inhibit | competitively inhibit | competition for binding of AI-11 to coated AI96-111 [2]: competitively inhibit; competition for binding of AI-11 to coated AI96-111 ([2]; listed as purified HDL): greater affinity
Apo AI residues 121-164: synthetic polypeptide corresponding to Apo AI residues 121-164 (Fukushima et al.) (PLRAELQEGARQKLHELQEKLSPLGEEMRDRARAHVDALRTHLA; UniProt P02647 145-188, looked up, fragment) |  |  |  | effectiveness relative to native Apo AI in the activation of cholesterol esterification (LCAT; Fukushima et al. 1980): 30%
PYLDDXQKKWQEEMELYRQKVEP (PYLDDFQKKWQEEMELYRQKVEP) [AI99-121] |  | nearly as well as Apo AI/HDL; also recorded: competitively inhibit; also recorded: immunoreacts | does not bind; also recorded: not a competitive inhibitor | 
KAKVQPYLDDXQKKWQEEMEL (KAKVQPYLDDFQKKWQEEMEL) [AI94-114] |  | partial reactivity |  | 
AI99-111: Apo AI polypeptide, residues 99-111 (PYLDDFQKKWQEE) | not bound by the antibody |  |  | 
